Reference: patent US20240285557A1, “PHARMACEUTICAL COMPOSITION COMPRISING LIPASE INHIBITOR FOR TREATMENT OR TREATMENT OF RNA VIRAL INFECTIONS” (priority 2021, published 2024)
“And” between values parts separate entries of the source, which are not always exact repeats. Equal entries are not always repeated. Where two headings read alike, the source gives them in different places.

Legend:
[1] = test system: SARS-COV-2, IAV, BCOV, PEDV, RVA, PRRSV, and PSaV; test: Viral genome copy (real-time PCR) and progeny virus production in cells infected with seven RNA viruses; assay type: cell-based; settings: 1, 10, and 20 μM; dose-dependent, all seven viruses
Source text: Subsequently, each well was washed three times with phosphate-buffered saline, followed by the addition of the respective viral culture media.
Subsequently, each plate underwent three cycles of freezing and thawing to detach the cells from each well for subsequent experiments.
To analyze the inhibitory effects of atglistatin and CAY10499 on the genome copies of each virus, RNA was extracted using the RNeasy mini kit (Qiagen). The extracted RNA was then used to synthesize cDNA using the TOPscript™ cDNA Synthesis kit (Enzynomics), which includes random hexamer and poly(rA)-oligo(dT). Afterward, real-time PCR was performed on the synthesized cDNA in the TOPreal™ qPCR 2× PreMix (Enzynomics) solution in the presence of specific primers for SARS-COV-2 nucleocapsid (N), influenza A virus PB1, bovine coronavirus spike (S), porcine epidemic diarrhea coronavirus nucleocapsid (N), bovine species A rotavirus VP6, porcine reproductive and respiratory syndrome virus matrix (M), and porcine sapovirus VPg, using the LineGene 9600 Plus Real-time PCR detection system (Bioer, Hangzhou, China).
To analyze the inhibitory effects of atglistatin and CAY10499 on the production of progenies of the viruses, the supernatant obtained after three cycles of freezing and thawing was serially ten-fold diluted. […] After adsorption, each well was washed twice with phosphate-buffered saline (pH 7.4), followed by the addition of the respective culture media.
Then, after removal of the supernatants, the cells were fixed with 4% paraformaldehyde for 15 minutes and each well was washed thrice with phosphate-buffered saline and treated with 0.2% Triton X-100 at 20° C. for 10 minutes.
After three washes with phosphate-buffered saline, the wells were treated with 100- to 200-fold diluted primary antibodies to the spike protein of SARS-COV-2, the nucleoprotein protein of influenza A virus, the spike protein of bovine coronavirus, the nucleocapsid protein of porcine epidemic diarrhea coronavirus, the VP6 protein of bovine species A rotavirus, the matrix protein of porcine reproductive and respiratory syndrome virus, and the VPg protein of porcine sapovirus, respectively, and applied to a refrigerator at 4° C. for 12 hours.
Subsequently, the supernatant was removed, and each well was washed thrice with phosphate-buffered saline, followed by incubation with a 100- to 200-fold dilution of a secondary antibody conjugated with Alexa Fluor 488 or fluorescein isothiocyanate at room temperature for 2 hours.
Each virus was allowed to adsorb onto the cells which were then cultured in a freshly changed medium containing DABPU-EM or DABPU-DE. Thereafter, the cells were detached from the wells for subsequent experiments.

[2] = test system: influenza A virus PR8 strain; test: Influenza A virus-infected mice treated with lipase inhibitor; assay type: in vivo, C57BL/6J mice; settings: for survival rate: 15 days observation; for free fatty acids and glycerol concentrations in lung tissues / progeny virus numbers in lung tissues / virus gene numbers in lung tissues: 5 mg/kg/day for 4 days, sixth day post-infection; for lung lesions, including interstitial pneumonia, and number of virus-positive cells / number of lipid droplets in bronchiolar epithelial cells / viral antigen in the bronchiolar epithelial cells: 5 mg/kg/day, vs untreated virus-inoculated group; for survival rate, weight loss, and clinical symptoms: 0.01 to 10 mg/kg/day, dose-dependent
Experimental: For use in verifying the antiviral effect of lipase inhibition in animals infected with influenza A virus, 150 mg/ml of atglistatin and 150 mg/ml of CAY10499 were dissolved in DMSO. To evaluate the antiviral effect depending on the concentration, the drugs were prepared at concentrations of 1.000, 0.500, 0.100, 0.010, and 0.001 mg/ml. […] The drugs were completely dissolved by vortexing.
For evaluating the antiviral efficacy of CAY10499, mouse groups were prepared in the same manner with the exception of using CAY10499 instead of atglistatin.
Influenza A virus inoculation was carried out on anesthetized mice via an intranasal route at 1,000 PFU per mouse, following the same procedure as above. In cases where the virus was not injected, only phosphate-buffered saline was administered. Observations were made for 15 days, during which survival rates, body weight, and clinical symptoms were monitored and recorded daily. […] Drug treatment began two days after the inoculation of influenza A virus.
The survival rate, which was 100% with a 0% mortality rate on day 0 of the infection, was measured daily over 15 days, and compared with the survival rate of the virus-injected and untreated group. Statistical significance was analyzed using the Log Rank Test, with a p value of 0.05 or […] considered significant.
Each group consisted of four seven-week-old female wild-type C57BL/6J mice, acclimatized for one week, and used in the experiment at eight weeks of age.
Mice were inoculated with influenza A virus PR8 strain in the same manner as described above, and drug treatment was conducted for 4 days, starting from the second day post-infection. On the sixth day post-infection, the mice were euthanized for autopsy.
These tissues were assayed for free fatty acid levels.
To evaluate lipid droplets and influenza A virus antigen in the lung tissues, the fixed tissues were prepared into 3-μm-thick frozen sections. […] After washing, the sections were mounted with Slow-Fade Gold antifade reagent for nucleus staining.
The sections were then finely cut at 3 μm thickness, deparaffinized in xylene, and rehydrated through graded alcohols and water. […] Histological examination was then performed using an optical microscope.
Immunohistochemistry was performed for influenza A virus antigens in the lung tissue.

[3] = test system: SARS-COV-2 strain KCDC03, KDCA51463, or KDCA55905; test: Proliferation of SARS-CoV-2 in various cultured cells; assay type: cell-based; settings: Vero E6, Caco-2, Calu-3 cells (FIGS. 21a to 21f); vs solvent (vehicle)
[4] = test system: influenza A virus PR8 strain; test: Proliferation of influenza A virus in MRC-5, NCI-H293, WI-38, and Calu-3 cells; assay type: cell-based; settings: MRC-5, NCI-H293, WI-38, Calu-3 cells; 1, 10, 20 μM; vs solvent (vehicle)
[5] = test system: Influenza A virus (H1N1) (PR8)
[6] = test system: Bovine coronavirus (KWD20); settings: for SI (CC50/IC50): Bovine coronavirus (KWD20); for IC50: HRT-18G cells, MOI 0.01 ffu/cell, drug added after 18 hours, additional 18 hours
[7] = test system: Porcine epidemic diarrhea coronavirus (QIAP1401); settings: for IC50: Vero E6 cells, MOI 0.01 ffu/cell, drug added after 18 hours, additional 18 hours
[8] = test system: Species A Rotavirus (NCDV); settings: for IC50: MA104 cells, MOI 0.01 ffu/cell, drug added after 12 hours, additional 12 hours; for SI (CC50/IC50): Species A Rotavirus (NCDV)
[9] = test system: Porcine respiratory reproductive syndrome virus (LMY); settings: for IC50: MARC-145 cells, MOI 0.01 ffu/cell, drug added after 18 hours, additional 18 hours; for SI (CC50/IC50): Porcine respiratory reproductive syndrome virus (LMY)
[10] = test system: Porcine sapovirus (Cowden); settings: for IC50: LLC-PK cells, MOI 0.01 ffu/cell, drug added after 18 hours, additional 18 hours; for SI (CC50/IC50): Porcine sapovirus (Cowden)
SARS-CoV-2 (KCDC03) = test: Half-maximal viral inhibitory concentration (IC50), immunofluorescence of virus-positive cells; settings: for SI (CC50/IC50): SARS-CoV-2 (KCDC03); for IC50: Vero E6 cells, MOI 0.01 ffu/cell, drug added after 18 hours, additional 18 hours
[11] = 5 mg kg^−1 day^−1 intraperitoneally for four days from day 2 post infection
[12] = 10 mg kg^−1 day^−1 intraperitoneally for four days from day 2 post infection, control 100% mortality
[13] = Porcine epidemic diarrhea coronavirus (QIAP1401)

Row | Structure (SMILES) | copies of genomes of each virus [1] | production of progenies of each virus [1] | free fatty acids and glycerol concentrations in lung tissues [2] | progeny virus numbers in lung tissues [2] | virus gene numbers in lung tissues [2] | lung lesions, including interstitial pneumonia, and number of virus-positive cells [2] | number of lipid droplets in bronchiolar epithelial cells [2] | viral antigen in the bronchiolar epithelial cells [2] | survival rate [2, 12] | survival rate, weight loss, and clinical symptoms [2] | number of viral genome copies [3] | progeny virus number [4] | viral genome copy number [4] | SI (CC50/IC50) ([5]; Influenza A virus (H1N1) (PR8)) | SI (CC50/IC50) [6] | SI (CC50/IC50) [8] | SI (CC50/IC50) [9] | SI (CC50/IC50) [10] | SI (CC50/IC50) (SARS-CoV-2 (KCDC03)) | IC50 (SARS-CoV-2 (KCDC03)) [nM] | further results
1 | CCN(CC)C(=O)Nc1cccc(-c2ccc(N(C)C)cc2)c1 [DABPU-DE] | reduced | reduced | significantly reduced | significantly reduced | significantly reduced | alleviation and reduction | no significant decrease | significantly decreasing | 68.8% | improvement | significantly reduced | significantly reduced | significantly reduced | 207 | 158 | 36 | 95 | 81 | 185 | 1200 | survival rate [2, 11]: 68.8%; IC50 ([5]; […], drug added after 12 hours, additional 12 hours): 1030 nM; IC50 [6]: 1120 nM; SI (CC50/IC50) [7, 13]: 128; IC50 [7]: 1620 nM; IC50 [8]: 5220 nM; IC50 [9]: 2290 nM; IC50 [10]: 2770 nM
2 | CN(C)C(=O)Nc1cccc(-c2ccc(N(C)C)cc2)c1 [Atglistatin, 3-(4′-(dimethylamino)-(1,1′-biphenyl)-3-yl)-1,1-dimethylurea] | reduced | reduced | significant decrease | significant decrease | significant decrease | alleviation and reduction | did not decrease significantly | significant reduction | 60% and 62.5% | improvement | significantly reduced | significantly reduced | significantly reduced | 251 | 152 | 32 | 84 | 72 | 154 | 1470 | survival rate [2, 11]: 62.5%; SI (CC50/IC50) [7, 13]: 116
3 | CCN(C)C(=O)Nc1cccc(-c2ccc(N(C)C)cc2)c1 [DABPU-EM, 3-(4′-(dimethylamino)-(1,1′-biphenyl)-3-yl)-1-ethyl-1-methylurea] | reduced | reduced | significantly reduced | significantly reduced | significantly reduced | alleviation and reduction | no significant decrease | significantly decreasing | 50% | improvement | significantly reduced | significantly reduced | significantly reduced | 127 | 54 | 32 | 78 | 62 | 122 | 1710 | SI (CC50/IC50) [7, 13]: 108
4 | COc1nn(-c2ccc(NC(=O)OCc3ccccc3)c(C)c2)c(=O)o1 [CAY10499] | reduced | reduced | significant decrease | significant decrease | significant decrease | alleviation and reduction | did not decrease significantly | significant reduction | 50% | improvement | – | – | – | – | 11 | 4 | 21 | 8 | 62 | 1540 | IC50 [5]: 4130 nM; SI (CC50/IC50) [5]: 27; IC50 [6]: 7300 nM; SI (CC50/IC50) [7]: 30; IC50 [7]: 3190 nM; IC50 [8]: 20800 nM; IC50 [9]: 4210 nM; IC50 [10]: 11800 nM
